One compound from US10149887B2, “Peptides and peptidomimetics in combination with t cell activating and/or checkpoint inhibiting agents for cancer treatment” (CanBas Co., Ltd., priority 2015, dated 2018) can be followed below.

Structures are written as SMILES. Where two headings read alike, the source gives them in different places. Square brackets hold non-standard residues; d marks the D form. Peptide text beside a SMILES is read from it. dPhe(F5) = N[C@H](Cc1c(F)c(F)c(F)c(F)c1F)C(=O)O; dBpa = N[C@H](Cc1ccc(C(=O)c2ccccc2)cc1)C(=O)O; dCha = N[C@H](CC1CCCCC1)C(=O)O

One series concerns HUVEC. Briefly: G2 checkpoint abrogation by CBP501 combined with cis-platin, flow cytometry. The format is cell-based, human. The conditions noted are these: umbilical vein endothelium, cis-platin 3 μg/ml 3 hr, then 45 hr. The procedure:
The medium was aspirated, fresh medium without these compounds was added and the cells were incubated for an additional 45 hr. The cells including floating cells were harvested using trypsin-EDTA solution, incubated with Krishan's solution and analyzed for DNA content by flow cytometry as previously described.

Series [1] can be described thus: Human serum treatment analysis (residual G2 checkpoint abrogating activity). The format is in vitro ADME. As to conditions: 37 degrees. The procedure:
Serum analysis was performed to determine the stability of peptides in mouse and human serum. Briefly, peptides (10 mM or 2.5 mM) were incubated with freshly prepared human serum at 37 degrees for 1 hr. […] Jurkat cells were treated with the serum with or without peptides and bleomycin (40 μg/ml) and incubated for 24 hr. The population of G2 phase cells was determined by flow cytometry as previously described. The residual G2 checkpoint abrogating activity of serum treated peptides were determined by comparing the % G2 cells of the treated serum and the standard curve produced with medium treated peptides, bleomycin and Jurkat cells (Table 5A).

Series [2] can be described thus: Mouse serum treatment analysis (residual CBP501 by HPLC). The conditions noted are these: CBP501 10 mM, 37 degree. The format is in vitro ADME.
In the next series the test system is MIAPaCa2. The conditions noted are these: three hours exposure. The procedure:
The medium was changed and incubated an additional 24, 48 or 72 hour. Following incubation, 20 μl of alamarBlue 90% reagent was added to each well for another 6 hours for detection of cell viability by fluorescent intensity. Fluorescent intensity was measured using a Spectrafluor Plus plate reader with exitation 530 nm and emission 590 nm. The IC50 was calculated (Table 6).

Another series has as its system HMGB1. As to the kind of experiment: HMGB1 secretion from CT26WT cells (ELISA). The format is cell-based, murine. As to conditions: 20 μM CDDP with 0.5 μM CBP501, 45 min. The procedure: Secreted HMGB1 into the medium was collected at 24, 48 and 72 hours after treatment (n=3). Quantification of the secreted HMGB1 was conducted by HMGB1 ELISA kit II. Samples were compared by student's t-test. *P<0.05 **P<0.01, compared with untreated control cells, and ^†P<0.05, ^††P<0.01, compared with the corresponding CDDP alone.
After changing with fresh drug-free medium, cells were incubated for 24, 48, or 72 hours for Immunoblotting analysis of phospho-eIF2-alpha, for calreticulin analysis by FACS, or for HMGB1 ELISA.
The secreted HMGB1 to the medium was quantificated by HMGB1 ELISA kit II (SINO-TEST CORPORATION, kanagawa, Japan) according to manufacturer's instructions.
For orientation: An ELISA detects its analyte on a solid surface through an enzyme-linked reagent.

Take `N=C(N)NCCC[C@@H](NC(=O)[C@@H](CCCNC(=N)N)NC(=O)[C@@H](CCC(N)=O)NC(=O)[C@@H](CCCNC(=N)N)NC(=O)[C@@H](CCCNC(=N)N)NC(=O)[C@@H](CCCNC(=N)N)NC(=O)[C@@H](CC1CCCCC1)NC(=O)[C@@H](Cc1c(F)c(F)c(F)c(F)c1F)NC(=O)[C@@H](CO)NC(=O)[C@@H](Cc1c[nH]c2ccccc12)NC(=O)[C@@H](CO)NC(=O)[C@H](N)Cc1ccc(C(=O)c2ccccc2)cc1)C(=O)O` [CBP501, (d-Bpa)(d-Ser)(d-Trp)(d-Ser)(d-Phe-2,3,4,5,6-F)(d-Cha)(d-Arg)(d-Arg)(d-Arg)(d-Gln)(d-Arg)(d-Arg)] (H-[dBpa][dS][dW][dS][dPhe(F5)][dCha][dR][dR][dR][dQ][dR][dR]-OH; N-terminus and C-terminus assumed): the “G2 checkpoint abrogating dose of CBP501, cis-platin” value with HUVEC is more than 50 µM. For the same compound, in series [1], the “Residual activity of peptide after 1 hr human serum treatment” value is reported as >50% of original. For the same compound, in series [2], the “Residual peptide after 1 hr mouse serum treatment (Mouse serum treatment analysis)” value is recorded as more than 90%. Also, the IC50 in the series on MIAPaCa2 (read-out: IC50 24 hr, CBP501 with 10 uM cisplatin, with 10 uM cisplatin, additional 24 hour) was found to be 0.6 µM; in the series with MIAPaCa2 (read-out: IC50 24 hr, additional 24 hour), 6 µM; with MIAPaCa2 (read-out: IC50 48 hr, CBP501 with 10 uM cisplatin, with 10 uM cisplatin, additional 48 hour), 1 µM; in the series with MIAPaCa2 (read-out: IC50 48 hr, additional 48 hour), 10 µM; in the series with MIAPaCa2 (read-out: IC50 72 hr, CBP501 with 10 uM cisplatin, with 10 uM cisplatin, additional 72 hour), 6 µM; in the series on MIAPaCa2 (read-out: IC50 72 hr, additional 72 hour), 13 µM. Besides, the “HMGB1 release, CDDP combined with CBP501 vs CDDP alone” value in the series with HMGB1 is “about 2 times”.

Broadly, the IC50 is the concentration needed to halve the response being measured.
